# According to patent publication US20160002248A1, “GLS1 INHIBITORS FOR TREATING DISEASE” (Board of Regents, The University of Texas System, priority 2014, published 2016):
# pEC50, pIC50: −log10 of the molar value.
# Assays:
# [1] = target: T1, purified recombinant human GAC (GLS1) (Homo sapiens, UniProt O94925); assay: GLS1 Enzymatic Activity Assay (dual-coupled enzymatic assay); type: biochemical
# T1 sequence (O94925 55-598 isoform O94925-3 limits assumed): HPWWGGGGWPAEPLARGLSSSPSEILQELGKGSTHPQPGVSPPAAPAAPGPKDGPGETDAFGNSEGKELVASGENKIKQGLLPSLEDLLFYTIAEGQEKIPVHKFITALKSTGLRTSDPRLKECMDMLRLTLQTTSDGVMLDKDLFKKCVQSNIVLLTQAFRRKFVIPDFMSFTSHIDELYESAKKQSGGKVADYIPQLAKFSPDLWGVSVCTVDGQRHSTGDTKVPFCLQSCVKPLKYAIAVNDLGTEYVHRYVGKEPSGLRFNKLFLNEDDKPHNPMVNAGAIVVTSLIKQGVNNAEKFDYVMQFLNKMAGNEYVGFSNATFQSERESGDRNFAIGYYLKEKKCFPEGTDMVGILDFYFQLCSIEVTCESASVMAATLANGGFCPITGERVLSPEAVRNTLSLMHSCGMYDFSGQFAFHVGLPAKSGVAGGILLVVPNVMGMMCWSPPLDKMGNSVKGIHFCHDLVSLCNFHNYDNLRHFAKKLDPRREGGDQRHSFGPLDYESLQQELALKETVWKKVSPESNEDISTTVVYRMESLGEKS
# How it was run: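 Recombinant human GAC (2 nM) preincubated with 50 mM potassium phosphate, then inhibitor (10 min each, RT); 1 mM glutamine, pH 7.4 Hepes buffer, 1% DMSO. Glutamate coupled via glutamate oxidase/HRP to resorufin (Ex 530/Em 590), kinetic or 20-min endpoint; IC50 by four-parameter logistic fit.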
# A549 cells = assay: Proliferation Assay (A549 cell viability, Cell Titer Fluor); type: cell-based; conditions: Homo sapiens, 72 hours
# How it was run: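 A549 cells seeded at 1000 cells/well, left 24 h, then exposed to compound for 72 h at 37 °C, 5% CO2, final DMSO 0.5% (v/v). Viability read by Cell Titer Fluor fluorescence; EC50 from four-parameter logistic fit.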
Compound,pIC50 [1],pEC50 (A549 cells)
"CC(C)(F)C(=O)N1CC(c2cc3cc(CCCCn4cc(C(=O)NCc5cc(OC(F)(F)F)ccc5F)nn4)nnc3[nH]2)C1 [Example 227, 1-(4-{6-[1-(2-fluoro-2-methylpropanoyl)azetidin-3-yl]-7H-pyrrolo[2,3-c]pyridazin-3-yl}butyl)-N-{[2-fluoro-5-(trifluoromethoxy)phenyl]methyl}-1H-1,2,3-triazole-4-carboxamide]",> 7.00,> 7.00
"COc1ncc(-c2c(C3CC3)[nH]c3nnc(CCCCn4cc(C(=O)NCc5cccc(OC(F)(F)F)c5)nn4)cc23)c(OC)n1 [Example 173, 1-{4-[6-cyclopropyl-5-(2,4-dimethoxypyrimidin-5-yl)-7H-pyrrolo[2,3-c]pyridazin-3-yl]butyl}-N-{[3-(trifluoromethoxy)phenyl]methyl}-1H-1,2,3-triazole-4-carboxamide]",> 7.00,6.30 to 7.00
"O=C(NCc1ccccn1)c1cn(CCCCc2cc3cc(C4CC4)[nH]c3nn2)nn1 [Example 16, 1-(4-(6-cyclopropyl-7H-pyrrolo[2,3-c]pyridazin-3-yl)butyl)-N-(pyridin-2-ylmethyl)-1H-1,2,3-triazole-4-carboxamide]",6.30 to 7.00,6.30 to 7.00
"O=C(NCc1cc(C(F)(F)F)ccn1)c1cn(CCCCc2cc3c(-c4ccc(F)cc4F)c(C4CC4)[nH]c3nn2)nn1 [Example 219, 1-{4-[6-cyclopropyl-5-(2,4-difluorophenyl)-7H-pyrrolo[2,3-c]pyridazin-3-yl]butyl}-N-{[4-(trifluoromethyl)pyridin-2-yl]methyl}-1H-1,2,3-triazole-4-carboxamide]",> 7.00,> 7.00
"Cc1ccc(CNC(=O)c2cn(CCCCc3cc4c(C5CC5)c(C5CC5)[nH]c4nn3)nn2)cn1 [Example 96, 1-(4-(5,6-dicyclopropyl-7H-pyrrolo[2,3-c]pyridazin-3-yl)butyl)-N-((6-methylpyridin-3-yl)methyl)-1H-1,2,3-triazole-4-carboxamide]",> 7.00,6.30 to 7.00
"NC(=O)c1nnc(CCCCc2cc3cc(Cc4ccccc4)[nH]c3nn2)s1 [Example 80, 5-(4-{6-benzyl-7H-pyrrolo[2,3-c]pyridazin-3-yl}butyl)-1,3,4-thiadiazole-2-carboxamide]",6.30 to 7.00,5.30 to 6.30
"O=C(NCc1ccccn1)c1cn(CCCCc2cc3c(-c4ccccc4)c(C4CC4)[nH]c3nn2)nn1 [Example 108, 1-(4-{6-cyclopropyl-5-phenyl-7H-pyrrolo[2,3-c]pyridazin-3-yl}butyl)-N-(pyridin-2-ylmethyl)-1H-1,2,3-triazole-4-carboxamide]",> 7.00,6.30 to 7.00
"Cc1ccc(CNC(=O)c2cn(CCCCc3cc4cc(C5CC5)[nH]c4nn3)nn2)nc1 [Example 56, 1-(4-{6-cyclopropyl-7H-pyrrolo[2,3-c]pyridazin-3-yl}butyl)-N-[(5-methylpyridin-2-yl)methyl]-1H-1,2,3-triazole-4-carboxamide]",6.30 to 7.00,5.30 to 6.30
"O=C(NCc1ccccn1)c1cn(CCCCc2cc3c(-c4ccsc4)c(C4CC4)[nH]c3nn2)nn1 [Example 139, 1-{4-[6-cyclopropyl-5-(thiophen-3-yl)-7H-pyrrolo[2,3-c]pyridazin-3-yl]butyl}-N-(pyridin-2-ylmethyl)-1H-1,2,3-triazole-4-carboxamide]",> 7.00,6.30 to 7.00
"Cn1cc(CNC(=O)c2cn(CCCCc3cc4cc(C5CC5)[nH]c4nn3)nn2)cn1 [Example 51, 1-(4-{6-cyclopropyl-7H-pyrrolo[2,3-c]pyridazin-3-yl}butyl)-N-[(1-methyl-1H-pyrazol-4-yl)methyl]-1H-1,2,3-triazole-4-carboxamide]",6.30 to 7.00,5.30 to 6.30
"O=C(NCc1cc(C(F)(F)F)ccn1)c1cn(CCCCc2cc3c(C4CC4)c(C4CC4)[nH]c3nn2)nn1 [Example 210, 1-(4-{5,6-dicyclopropyl-7H-pyrrolo[2,3-c]pyridazin-3-yl}butyl)-N-{[4-(trifluoromethyl)pyridin-2-yl]methyl}-1H-1,2,3-triazole-4-carboxamide]",> 7.00,6.30 to 7.00
"CC(C)OC(=O)N1CC(c2cc3cc(CCCCn4cc(C(=O)NCc5ccc(C(F)(F)F)cn5)nn4)nnc3[nH]2)C1 [Example 206, propan-2-yl 3-(3-{4-[4-({[5-(trifluoromethyl)pyridin-2-yl]methyl}carbamoyl)-1H-1,2,3-triazol-1-yl]butyl}-7H-pyrrolo[2,3-c]pyridazin-6-yl)azetidine-1-carboxylate]",> 7.00,6.30 to 7.00
"COCCNC(=O)c1nnc(CCCCc2cc3cc(Cc4ccccc4)[nH]c3nn2)s1 [Example 67, 5-(4-{6-benzyl-7H-pyrrolo[2,3-c]pyridazin-3-yl}butyl)-N-(2-methoxyethyl)-1,3,4-thiadiazole-2-carboxamide]",6.30 to 7.00,6.30 to 7.00
"CNC(=O)c1cn(CC(F)CCc2cc3cc(-c4ccccc4F)[nH]c3nn2)nn1 (stereo not drawn) [Example 243, 1-{2-fluoro-4-[6-(2-fluorophenyl)-7H-pyrrolo[2,3-c]pyridazin-3-yl]butyl}-N-methyl-1H-1,2,3-triazole-4-carboxamide]",6.30 to 7.00,5.30 to 6.30
"O=C(NCc1ccccn1)c1cn(CCCCc2cc3c(-c4ccccc4F)c(C4CC4)[nH]c3nn2)nn1 [Example 120, 1-{4-[6-cyclopropyl-5-(2-fluorophenyl)-7H-pyrrolo[2,3-c]pyridazin-3-yl]butyl}-N-(pyridin-2-ylmethyl)-1H-1,2,3-triazole-4-carboxamide]",> 7.00,6.30 to 7.00
"CC(=O)Nc1cccc(-c2c(C3CC3)[nH]c3nnc(CCCCn4cc(C(=O)NCc5ccc(C)nc5)nn4)cc23)c1 [Example 154, 1-{4-[6-cyclopropyl-5-(3-acetamidophenyl)-7H-pyrrolo[2,3-c]pyridazin-3-yl]butyl}-N-[(6-methylpyridin-3-yl)methyl]-1H-1,2,3-triazole-4-carboxamide]",> 7.00,5.30 to 6.30
"O=C(NCc1ccccn1)c1cn(CCCCc2cc3c(-c4ccc(Cl)cc4)c(C4CC4)[nH]c3nn2)nn1 [Example 117, 1-{4-[5-(4-chlorophenyl)-6-cyclopropyl-7H-pyrrolo[2,3-c]pyridazin-3-yl]butyl}-N-(pyridin-2-ylmethyl)-1H-1,2,3-triazole-4-carboxamide]",> 7.00,6.30 to 7.00
"O=C(NCC1CC1)c1nnc(CCCCc2cc3cc(Cc4ccccc4)[nH]c3nn2)s1 [Example 77, 5-(4-{6-benzyl-7H-pyrrolo[2,3-c]pyridazin-3-yl}butyl)-N-(cyclopropylmethyl)-1,3,4-thiadiazole-2-carboxamide]",6.30 to 7.00,5.30 to 6.30
"O=C(NCc1cncc(C(F)(F)F)c1)c1cn(CCCCc2cc3c(-c4ccc(F)cc4F)c(C4CC4)[nH]c3nn2)nn1 [Example 221, 1-{4-[6-cyclopropyl-5-(2,4-difluorophenyl)-7H-pyrrolo[2,3-c]pyridazin-3-yl]butyl}-N-{[5-(trifluoromethyl)pyridin-3-yl]methyl}-1H-1,2,3-triazole-4-carboxamide]",> 7.00,> 7.00
"COCCOC(=O)N1CC(c2cc3cc(CCCCn4cc(C(=O)NCc5cc(OC(F)(F)F)ccc5F)nn4)nnc3[nH]2)C1 [Example 237, 2-methoxyethyl 3-(3-{4-[4-({[2-fluoro-5-(trifluoromethoxy)phenyl]methyl}carbamoyl)-1H-1,2,3-triazol-1-yl]butyl}-7H-pyrrolo[2,3-c]pyridazin-6-yl)azetidine-1-carboxylate]",> 7.00,6.30 to 7.00
"O=C(NCc1cc(OC(F)(F)F)ccc1F)c1cn(CCCCc2cc3cc(C4CNC4)[nH]c3nn2)nn1 [Example 118, 1-{4-[6-(azetidin-3-yl)-7H-pyrrolo[2,3-c]pyridazin-3-yl]butyl}-N-{[2-fluoro-5-(trifluoromethoxy)phenyl]methyl}-1H-1,2,3-triazole-4-carboxamide]",> 7.00,5.30 to 6.30
"CC(=O)N1CCC(c2cc3cc(CCCCn4cc(C(=O)NCc5cc(OC(F)(F)F)ccc5F)nn4)nnc3[nH]2)CC1 [Example 156, 1-{4-[6-(1-acetylpiperidin-4-yl)-7H-pyrrolo[2,3-c]pyridazin-3-yl]butyl}-N-{[2-fluoro-5-(trifluoromethoxy)phenyl]methyl}-1H-1,2,3-triazole-4-carboxamide]",> 7.00,6.30 to 7.00
"O=C(Cc1ccccc1)Nc1ccn(CCCCc2cc3cc(C4CC4)[nH]c3nn2)c(=O)c1 [Example 29, N-[1-(4-{6-cyclopropyl-7H-pyrrolo[2,3-c]pyridazin-3-yl}butyl)-2-oxo-1,2-dihydropyridin-4-yl]-2-phenylacetamide]",6.30 to 7.00,5.30 to 6.30
"O=C(Cc1ccccn1)Nc1nnc(CCCCc2cc3cc(Cc4ccccc4)[nH]c3nn2)s1 [Example 26, N-[5-(4-{6-benzyl-7H-pyrrolo[2,3-c]pyridazin-3-yl}butyl)-1,3,4-thiadiazol-2-yl]-2-(pyridin-2-yl)acetamide]",> 7.00,6.30 to 7.00
